Structures can show the parent of a compound that is named as a salt. Where two headings read alike, the source gives them in different places.
How the values were obtained:
[1] = test system: fibrin-induced microglia activation; assay: Image-based assay of fibrin-induced microglia activation (HTS and dose response); type: cell-based, rat; settings: primary microglia HTS, fibrin stimulation, compounds at 10 μM; for inhibition at 10 µM: Rattus norvegicus, Microglia, read-out: Fibrin % inhibition
[2] = test system: LPS-induced microglia activation; assay: Image-based assay of LPS-induced microglia activation (HTS and dose response); type: cell-based, rat; settings: primary microglia HTS, LPS stimulation, compounds at 10 μM; for inhibition at 10 µM: Rattus norvegicus, Microglia, read-out: LPS % inhibition
[3] = test system: fibrin- and LPS-induced microglia activation; assay: cells; type: cell-based, rat; settings: classification by fibrin and LPS inhibition, HTS at 10 μM
[4] = test system: primary rat microglia
[5] = test system: primary rat microglia; assay: Cell toxicity (dead cells, size <150 μm2) in coated fibrin (cFib) assay; settings: primary microglia HTS, fibrin assay, dead cells (size <150 μm2), compounds at 10 μM;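 note: share of dead cells sized under 150 µm2 at 10 µM in fibrin-stimulated microglia HTS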

Row | SMILES | inhibition at 10 µM [1] | inhibition at 10 µM [2] | Quadrant (FIG. 5b) [3] | LPS % cell toxicity ([4]; rat) | Fibrin % cell toxicity [5] | Fibrin % inhibition [1] | LPS % inhibition [2] | LPS % cell toxicity [4] | Fibrin % inhibition ([1]; 10 µM) | LPS % inhibition ([2]; 10 µM)
1 | CN[C@@H]1[C@H](O[C@H]2[C@H](O[C@H]3[C@H](O)[C@@H](O)[C@H](NC(=N)N)[C@@H](O)[C@@H]3NC(=N)N)O[C@@H](C)[C@]2(O)CO)O[C@@H](CO)[C@H](O)[C@H]1O [Dihydrostreptomycin Sulfate] | -7% | 12% | Q4 | 0% | 1% | – | – | – | – | –
2 | Oc1c(I)cc(I)c2cccnc12 [Diiodohydroxyquinoline] | -6% | 22% | Q4 | 0% | 1% | – | – | – | – | –
3 | CN(C(=O)C(Cl)Cl)c1ccc(OC(=O)c2ccco2)cc1 [Diloxanide Furoate] | -3% | 17% | Q4 | 0% | 1% | – | – | – | – | –
4 | O=S(=O)([O-])CCSSCCS(=O)(=O)[O-].[Na+].[Na+] [Dimesna] | – | – | Q4 | – | 1% | −19% | 13% | 0% | – | –
5 | CC1(C)OC(=O)NC1=O [Dimethadione] | -13% | 14% | Q4 | 0% | 1% | – | – | – | – | –
6 | COC(=O)/C=C/C(=O)OC [Dimethyl Fumarate] | 4% | 16% | Q4 | 0% | 0% | – | – | – | – | –
7 | N=C(N)c1ccc(/N=N/Nc2ccc(C(=N)N)cc2)cc1 [Diminazene] | -58% | 11% | Q4 | 0% | 0% | – | – | – | – | –
8 | CCCCC[C@H](O)/C=C/[C@@H]1[C@@H](C/C=C\CCCC(=O)O)[C@@H](O)C[C@H]1O [Dinoprost Tromethamine] | 36% | 15% | Q4 | 0% | 1% | – | – | – | – | –
9 | COc1ccc(-c2cc(=O)c3c(O)cc(O[C@@H]4O[C@H](CO[C@@H]5O[C@@H](C)[C@H](O)[C@@H](O)[C@H]5O)[C@@H](O)[C@H](O)[C@H]4O)cc3o2)cc1O [Diosmin] | -12% | 10% | Q4 | 0% | 1% | – | – | – | – | –
10 | COc1ccc(C(=O)c2ccccc2O)c(O)c1 [Dioxybenzone] | -4% | 16% | Q4 | 0% | 1% | – | – | – | – | –
11 | O=C(Nc1ccccc1)OCC(CN1CCCCC1)OC(=O)Nc1ccccc1 (stereo not drawn) [Diperodon Hydrochloride] | 42% | 26% | Q4 | 1% | 1% | – | – | – | – | –
12 | OC(CCCN1CCCCC1)(c1ccccc1)c1ccccc1 [Diphenidol] | -34% | -5% | Q4 | 0% | 1% | – | – | – | – | –
13 | CC(=O)Oc1cccc(C(=O)O)c1OC(C)=O [Dipyrocetyl] | -1% | 7% | Q4 | 0% | 1% | – | – | – | – | –
14 | CC[C@H]1OC(=O)[C@H](C)[C@@H](O[C@H]2C[C@@](C)(OC)[C@@H](O)[C@H](C)O2)[C@H](C)[C@@H](O[C@@H]2O[C@H](C)C[C@H](N(C)C)[C@H]2O)[C@](C)(O)C[C@@H](C)[C@@H]2N[C@@H](COCCOC)O[C@H]([C@H]2C)[C@]1(C)O [Dirithromycin] | 7% | 27% | Q4 | 1% | 1% | – | – | – | – | –
15 | CC(C)N(CCC(C(N)=O)(c1ccccc1)c1ccccn1)C(C)C (stereo not drawn) [Disopyramide] | -13% | 1% | Q4 | 0% | 1% | – | – | – | – | –
16 | CCOC(=S)SSC(=S)OCC [Dixanthogen] | 4% | 17% | Q4 | 0% | 1% | – | – | – | – | –
17 | CC(CCc1ccc(O)cc1)NCCc1ccc(O)c(O)c1 (stereo not drawn) [Dobutamine Hydrochloride] | – | – | Q4 | 0% | 1% | – | – | – | 22% | 27%
18 | CC(CCc1ccc(O)cc1)NCCc1ccc(O)c(O)c1 (stereo not drawn) [Dobutamine] | – | – | Q4 | 0% | 1% | – | – | – | −29% | −7%
19 | CC/C=C\C/C=C\C/C=C\C/C=C\C/C=C\C/C=C\CCC(=O)O [Doconexent] | 3% | 11% | Q4 | 0% | 1% | – | – | – | – | –
20 | CCCCCCCCCCCCCCCCCCCCCCO [Docosanol] | -10% | -2% | Q4 | 0% | 0% | – | – | – | – | –
21 | CCCCC(CC)COC(=O)CC(C(=O)OCC(CC)CCCC)S(=O)(=O)[O-].[Na+] (stereo not drawn) [Docusate Sodium] | – | – | Q4 | – | 0% | −39% | −4% | 0% | – | –
22 | CN(CCOc1ccc(NS(C)(=O)=O)cc1)CCc1ccc(NS(C)(=O)=O)cc1 [Dofetilide] | -26% | 5% | Q4 | 0% | 1% | – | – | – | – | –
23 | CO[C@H]1C[C@H](O[C@H]2[C@H](C)O[C@@H](O[C@@H]3/C(C)=C/C[C@@H]4C[C@@H](C[C@]5(C=C[C@H](C)[C@@H](C6CCCCC6)O5)O4)OC(=O)[C@@H]4C=C(C)[C@@H](O)[C@H]5OC/C(=C\C=C\[C@@H]3C)[C@]54O)C[C@@H]2OC)O[C@@H](C)[C@@H]1O [Doramectin] | – | – | Q4 | – | 1% | −9% | 7% | 0% | – | –
24 | CCN1CC(CCN2CCOCC2)C(c2ccccc2)(c2ccccc2)C1=O (stereo not drawn) [Doxapram Hydrochloride] | -18% | 9% | Q4 | 0% | 0% | – | – | – | – | –
25 | COc1cc2nc(N3CCN(C(=O)C4COc5ccccc5O4)CC3)nc(N)c2cc1OC (stereo not drawn) [Doxazosin] | -26% | 6% | Q4 | 0% | 0% | – | – | – | – | –
26 | C[C@H]1c2cccc(O)c2C(=O)C2=C(O)[C@]3(O)C(=O)C(C(N)=O)=C(O)[C@@H](N(C)C)[C@@H]3[C@@H](O)[C@@H]21 [Doxycycline] | -19% | 18% | Q4 | 0% | 0% | – | – | – | – | –
27 | CN(C)CCOC(C)(c1ccccc1)c1ccccn1 (stereo not drawn) [Doxylamine] | -45% | 17% | Q4 | 0% | 1% | – | – | – | – | –

Source: patent publication US20210330611A1, “THERAPY FOR NEUROLOGICAL DISEASES/DISORDERS” (priority 2020, published 2021)
